Experimental data as given in PubChem BioAssay (NCI).
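Compound exposure: 48 hours, 5 concentrations, 96-well plates. The concentration for 50% growth inhibition is given as GI50. At the TGI there is no net growth.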

Key:
Experiment in all cases: growth of human tumour cells (NCI), 48 h
[1] = test system: HCT-15 colon
[2] = test system: PC-3 prostate
[3] = test system: SK-MEL-28 melanoma
[4] = test system: HCC-2998 colon
[5] = test system: KM12 colon
[6] = test system: HL-60(TB) leukemia
[7] = test system: HS 578T breast
[8] = test system: OVCAR-8 ovarian
[9] = test system: SW-620 colon
[10] = test system: SF-539 CNS
[11] = test system: ACHN renal
[12] = test system: MDA-MB-231 breast
[13] = test system: MDA-N
[14] = test system: CCRF-CEM leukemia
[15] = test system: SN12C renal
[16] = test system: IGROV1 ovarian
[17] = test system: OVCAR-5 ovarian
[18] = test system: UACC-257 melanoma
[19] = test system: 786-0 renal
[20] = test system: SF-295 CNS
[21] = test system: M14 melanoma
[22] = test system: MALME-3M melanoma
[23] = test system: EKVX NSCLC
[24] = test system: U251 CNS
[25] = test system: DU-145 prostate
[26] = test system: RPMI-8226 leukemia
[27] = test system: NCI-H522 lung
[28] = test system: NCI/ADR-RES ovarian
[29] = test system: RXF 393 renal
[30] = test system: COLO 205 colon
[31] = test system: NCI-H460 lung
[32] = test system: SR leukemia
[33] = test system: OVCAR-3 ovarian
[34] = test system: NCI-H23 lung
[35] = test system: SNB-75 CNS
[36] = test system: SNB-19 CNS
[37] = test system: MDA-MB-435
[38] = test system: UO-31 renal
[39] = test system: HOP-62 NSCLC
[40] = test system: T-47D breast
[41] = test system: UACC-62 melanoma
[42] = test system: A549 NSCLC
[43] = test system: MCF7 breast
[44] = test system: SK-OV-3 ovarian
[45] = test system: A498 renal
[46] = test system: NCI-H226 lung
[47] = test system: SK-MEL-5 melanoma
[48] = test system: HCT-116 colon
[49] = test system: K-562 leukemia
[50] = test system: HT29 colon
[51] = test system: LOX IMVI melanoma
[52] = test system: MOLT-4 leukemia
[53] = test system: OVCAR-4 ovarian
[54] = test system: SF-268 CNS
[55] = test system: TK-10 renal
[56] = test system: CAKI-1 renal
[57] = test system: SK-MEL-2 melanoma
[58] = test system: BT-549 breast
[59] = test system: HOP-92 NSCLC

SMILES: C=C(Br)CN(CC(=C)Br)C(C)=O
- TGI [1]: > 100 µM
- TGI [2]: > 100 µM
- TGI [3]: > 100 µM
- TGI [4]: > 100 µM
- TGI [5]: > 100 µM
- TGI [6]: > 100 µM
- TGI [7]: > 100 µM
- TGI [8]: > 100 µM
- TGI [9]: > 100 µM
- TGI [10]: > 100 µM
- TGI [11]: > 100 µM
- TGI [12]: > 100 µM
- TGI [13]: > 100 µM
- TGI [14]: > 100 µM
- TGI [15]: > 100 µM
- TGI [16]: > 100 µM
- TGI [17]: > 100 µM
- TGI [18]: > 100 µM
- TGI [19]: > 100 µM
- TGI [20]: > 100 µM
- TGI [21]: > 100 µM
- TGI [22]: > 100 µM
- TGI [23]: > 100 µM
- TGI [24]: > 100 µM
- TGI [25]: > 100 µM
- TGI [26]: > 100 µM
- TGI [27]: > 100 µM
- TGI [28]: > 100 µM
- TGI [29]: > 100 µM
- TGI [30]: > 100 µM
- TGI [31]: > 100 µM
- TGI [32]: > 100 µM
- TGI [33]: > 100 µM
- TGI [34]: > 100 µM
- TGI [35]: > 100 µM
- TGI [36]: > 100 µM
- TGI [37]: > 100 µM
- TGI [38]: > 100 µM
- TGI [39]: > 100 µM
- TGI [40]: > 100 µM
- TGI [41]: > 100 µM
- TGI [42]: > 100 µM
- TGI [43]: > 100 µM
- TGI [44]: > 100 µM
- TGI [45]: > 100 µM
- TGI [46]: > 100 µM
- TGI [47]: > 100 µM
- TGI [48]: > 100 µM
- TGI [49]: > 100 µM
- TGI [50]: > 100 µM
- TGI [51]: > 100 µM
- TGI [52]: > 100 µM
- TGI [53]: > 100 µM
- TGI [54]: > 100 µM
- TGI [55]: > 100 µM
- TGI [56]: > 100 µM
- TGI [57]: > 100 µM

SMILES: CCOC(=O)N1CCN(C(=O)Nc2cccc3ccccc23)CC1
- TGI [1]: > 10 µM
- TGI [2]: > 10 µM
- TGI [3]: > 10 µM
- TGI [4]: > 10 µM
- TGI [5]: > 10 µM
- TGI [6]: > 10 µM
- TGI [7]: > 10 µM
- TGI [8]: > 10 µM
- TGI [9]: > 10 µM
- TGI [10]: > 10 µM
- TGI [11]: > 10 µM
- TGI [12]: > 10 µM
- TGI [13]: > 10 µM
- TGI [14]: > 10 µM
- TGI [15]: > 10 µM
- TGI [16]: > 10 µM
- TGI [17]: > 10 µM
- TGI [20]: > 10 µM
- TGI [21]: > 10 µM
- TGI [22]: > 10 µM
- TGI [23]: > 10 µM
- TGI [24]: > 10 µM
- TGI [25]: > 10 µM
- TGI [26]: > 10 µM
- TGI [27]: > 10 µM
- TGI [28]: > 10 µM
- TGI [29]: > 10 µM
- TGI [30]: > 10 µM
- TGI [31]: > 10 µM
- TGI [32]: > 10 µM
- TGI [33]: > 10 µM
- TGI [34]: > 10 µM
- TGI [35]: > 10 µM
- TGI [36]: > 10 µM
- TGI [37]: > 10 µM
- TGI [38]: > 10 µM
- TGI [39]: > 10 µM
- TGI [40]: > 10 µM
- TGI [41]: > 10 µM
- TGI [42]: > 10 µM
- TGI [43]: > 10 µM
- TGI [44]: > 10 µM
- TGI [45]: > 10 µM
- TGI [46]: > 10 µM
- TGI [47]: > 10 µM
- TGI [48]: > 10 µM
- TGI [49]: > 10 µM
- TGI [50]: > 10 µM
- TGI [51]: > 10 µM
- TGI [52]: > 10 µM
- TGI [53]: > 10 µM
- TGI [54]: > 10 µM
- TGI [55]: > 10 µM
- TGI [56]: > 10 µM
- TGI [57]: > 10 µM

SMILES: COc1cc2cc(Oc3ccc(NC(=O)c4ccc(Cl)c(C(F)(F)F)c4)cc3)c(C)nc2cc1OC
- GI50 [1]: 12.3 µM
- TGI [1]: > 100 µM
- GI50 [2]: 4.3 µM
- TGI [2]: > 100 µM
- GI50 [3]: 30.3 µM
- TGI [3]: > 100 µM
- GI50 [4]: 41.7 µM
- TGI [4]: > 100 µM
- GI50 [5]: 12.3 µM
- TGI [5]: > 100 µM
- GI50 [6]: 20.8 µM
- TGI [6]: 82 µM
- GI50 [7]: 16.6 µM
- TGI [7]: 64 µM
- GI50 [8]: 22.9 µM
- TGI [8]: > 100 µM
- GI50 [9]: 33.7 µM
- TGI [9]: > 100 µM
- GI50 [10]: 41.3 µM
- TGI [10]: > 100 µM
- GI50 [11]: 10.8 µM
- TGI [11]: > 100 µM
- GI50 [12]: 11.4 µM
- TGI [12]: 27.5 µM
- GI50 [14]: 7.56 µM
- TGI [14]: > 100 µM
- GI50 [15]: 13.2 µM
- TGI [15]: > 100 µM
- GI50 [16]: 35.5 µM
- TGI [16]: > 100 µM
- GI50 [58]: 8.86 µM
- TGI [58]: 70.2 µM
- GI50 [17]: 55.9 µM
- TGI [17]: > 100 µM
- GI50 [18]: 18.2 µM
- TGI [18]: 97.5 µM
- GI50 [19]: 12.1 µM
- TGI [19]: > 100 µM
- GI50 [20]: 2.28 µM
- TGI [20]: 25.7 µM
- GI50 [21]: 9.55 µM
- TGI [21]: > 100 µM
- GI50 [22]: 28.6 µM
- TGI [22]: 95.1 µM
- GI50 [23]: 5.76 µM
- TGI [23]: 83.3 µM
- GI50 [24]: 8.72 µM
- TGI [24]: > 100 µM
- GI50 [25]: 26.2 µM
- TGI [25]: > 100 µM
- GI50 [26]: 5.43 µM
- TGI [26]: 32.7 µM
- GI50 [27]: 8.78 µM
- TGI [27]: 83.3 µM
- GI50 [28]: 4.21 µM
- TGI [28]: > 100 µM
- GI50 [29]: 9.04 µM
- TGI [29]: > 100 µM
- GI50 [30]: 11.2 µM
- TGI [30]: 24 µM
- GI50 [31]: 11.5 µM
- TGI [31]: > 100 µM
- GI50 [32]: 14.3 µM
- TGI [32]: > 100 µM
- GI50 [33]: 7.94 µM
- TGI [33]: 54 µM
- GI50 [34]: 9.73 µM
- TGI [34]: > 100 µM
- GI50 [35]: 16.4 µM
- TGI [35]: > 100 µM
- GI50 [36]: 24.6 µM
- TGI [36]: > 100 µM
- GI50 [37]: 14.7 µM
- TGI [37]: > 100 µM
- GI50 [38]: 9.82 µM
- TGI [38]: > 100 µM
- GI50 [39]: 42.6 µM
- TGI [39]: > 100 µM
- GI50 [40]: 5.69 µM
- TGI [40]: 99.6 µM
- GI50 [41]: 18.2 µM
- TGI [41]: > 100 µM
- GI50 [42]: 10.3 µM
- TGI [42]: > 100 µM
- GI50 [59]: 13.6 µM
- TGI [59]: 71.3 µM
- GI50 [43]: 8.95 µM
- TGI [43]: > 100 µM
- GI50 [44]: 66 µM
- TGI [44]: > 100 µM
- GI50 [45]: 2.42 µM
- TGI [45]: 86.3 µM
- GI50 [46]: 19.6 µM
- TGI [46]: > 100 µM
- GI50 [47]: 10.6 µM
- TGI [47]: 27.1 µM
- GI50 [48]: 4.18 µM
- TGI [48]: 88.9 µM
- GI50 [49]: 9.14 µM
- TGI [49]: > 100 µM
- GI50 [50]: 10.3 µM
- TGI [50]: > 100 µM
- GI50 [51]: 7.59 µM
- TGI [51]: > 100 µM
- GI50 [52]: 9.7 µM
- TGI [52]: 70.5 µM
- GI50 [53]: 5.58 µM
- TGI [53]: > 100 µM
- GI50 [54]: 37.2 µM
- TGI [54]: > 100 µM
- GI50 [55]: 12.4 µM
- TGI [55]: > 100 µM
- GI50 [56]: 4.19 µM
- TGI [56]: 46.2 µM
- GI50 [57]: 18.3 µM
- TGI [57]: 51.1 µM
